Source: patent US6131226A, “1,4-dihydropyridine compounds as bradykinin antagonists” (Pfizer Inc., priority 1996, dated 2000)

System: bradykinin-induced plasma leakage in rat urinary bladder
Test: bradykinin-induced plasma leakage test in rat urinary bladder
Format: in vivo
Conditions: test compound at a concentration of 1.5 μM, i.v. 3 ml/kg, bradykinin 10 nmol/kg i.v.
Procedure: The bradykinin antagonist activity of the dihydropyridine compounds in vivo is evaluated by a plasma leakage test. This test essentially involve determining the concentration of the individual compound required to reduce by 50% the amount of bradykinin-induced plasma leakage in rat urinary bladder, thereby affording characteristic ED50 values for each compounds tested.
More specifically, the assay is carried out as follows. 3.5-week old male Sprague-Dawlew rats are purchased from Charles River Japan Inc. The rats are fed on stock diet (CRF from Charles River Japan, Inc.) and maintained under the standard conditions (temperature, 23±1° C. and humidity 55±5%) for at least 3 days. The rats are fasted overnight prior to the experiments. Each test group consists of 5 rats. […]
Captopril (5 mg/kg of body weight) is intraperitoneally (i.p.) injected to the rats, and 20 min later the rats are anesthetized by an administration of Nembutal (Abbott) ([…] of body weight). […] The absorbance of the extract is measured spectrophotometrically at 605 nm to determined the dye concentration. The effect of the individual test compound is calculated as a percentage of the amount of Evans blue leaked into the urinary bladder as compared to the control (saline for the test compounds).

## COC(=O)C1=C(CCc2ccccc2OC)NC(CC(=O)N2CCN(C3CC4CCC(C3)N4C)CC2)=C(C(=O)OC)C1c1c(Cl)cccc1Cl (stereo not shown) [dimethyl 4-(2,6-dichlorophenyl)-6-[2-(2-methoxyphenyl)ethyl]-2-[4-(8-methyl-8-azabicyclo[3.2.1]oct-3-yl)-1-piperazinyl]carbonylmethyl-1,4-dihydropyridine-3,5-dicarboxylate]
  inhibition of urinary bladder leakage (Evans blue): did not show significant in vivo activity
